Assay results: patent US20230365571A1, “COMPOUNDS AND COMPOSITIONS AS Sppl2a INHIBITORS” (Novartis AG, priority 2020, published 2023)

Key:
Format in all cases: cell-based
[1] = molecular target: T1, Sppl2a CD74 (Mus musculus, UniProt Q9JJF9); test: CD74/p8 mouse whole blood assay, flow cytometry format; details: Balb/c mouse whole blood, 5 h, CD74 signal on gated live B cells
T1 construct: Mouse whole blood Balb/c mice (sodium citrate) was ordered by Bioreclamation LLC; tissue Bioreclamation LLC
T1 sequence (Q9JJF9 26-523): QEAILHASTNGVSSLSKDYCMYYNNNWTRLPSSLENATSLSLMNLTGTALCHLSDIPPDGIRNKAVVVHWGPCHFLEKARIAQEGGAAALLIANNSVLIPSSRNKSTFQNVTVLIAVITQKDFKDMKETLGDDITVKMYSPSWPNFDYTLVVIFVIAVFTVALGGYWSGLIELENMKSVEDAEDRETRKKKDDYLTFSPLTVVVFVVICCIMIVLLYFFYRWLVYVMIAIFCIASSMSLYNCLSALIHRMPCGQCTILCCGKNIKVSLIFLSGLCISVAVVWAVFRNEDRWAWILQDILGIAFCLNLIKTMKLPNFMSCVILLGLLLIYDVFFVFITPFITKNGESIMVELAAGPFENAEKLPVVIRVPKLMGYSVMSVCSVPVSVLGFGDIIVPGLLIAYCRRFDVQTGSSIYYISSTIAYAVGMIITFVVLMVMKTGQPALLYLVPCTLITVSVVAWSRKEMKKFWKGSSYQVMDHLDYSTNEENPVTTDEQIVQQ
Description: CD74/p8 Mouse Whole Blood Assay: Flow Cytometry Format
Mouse whole blood Balb/c mice (sodium citrate) was ordered by Bioreclamation LLC; USA. The blood was used the next day upon receipt (stored at 4° C.). 100 μL blood were transferred in 96 well format plate, where compounds, an 11 point dilutions down from 30 μM, to be tested were previously deposited. The plate was incubated for 5 h in the incubator at 37° C., 5% CO2 under continuous motion. After the incubation the blood was diluted with RBC Lysis Buffer (Amined; Cat. Nr 3-13F00-H or BD; Cat. Nr 555899). The solution was mixed by pipetting and incubated 10 min in the 37° C. incubator. The white blood cells were sedimented for 3 min at 2000 rpm. After removing the supernatant the cell pellet was resuspended and washed twice in RCB Buffer and kept≈ 5 min at room temperature, followed by a centrifugation for 2 min at 2000 rpm. The cell pellet was then resuspend in D-PBS and centrifuged twice. Finally, the cells were taken up in of D-PBS/0.5% inactivated fetal bovine serum/2 mM EDTA. The cell suspension was treated with Live/Dead fixable stain (Life Technologies, >470 nm version), B cells were identified by surface staining with an anti-B220 antibody coupled to APC fluorofor. After staining, the cells were extensively washed with PBS. The cells were permeabilized and fixed in FACS lysing buffer; (BD; #349202, dil 1:10 in water) and labelled with an anti CD74, FITC labelled antibody, washed once more with diluted FACS lysing buffer and spin down. The cell pellet was washed with D-PBS/0.5% inactivated fetal bovine serum/2 mM EDTA and PBS prior to the analysis in a flow cytometer. The compound concentrations were plotted against the intensity (medium fluorescence intensity) of the CD74 signal on the gated life B cell and IC50 were determined by fitting data for a 11 concentrations dose response.

[2] = molecular target: T2, human SPPL2a (Homo sapiens, UniProt Q8TCT8); test: Sppl2a RGA (reporter gene assay) in HEK293 cells; design: expressed in transfected cells; host or cells: HEK293 (transient); details: NT-TNF-VP16-Gal4 substrate, Gal4-luciferase reporter, 24 h
T2 sequence (Q8TCT8 26-520): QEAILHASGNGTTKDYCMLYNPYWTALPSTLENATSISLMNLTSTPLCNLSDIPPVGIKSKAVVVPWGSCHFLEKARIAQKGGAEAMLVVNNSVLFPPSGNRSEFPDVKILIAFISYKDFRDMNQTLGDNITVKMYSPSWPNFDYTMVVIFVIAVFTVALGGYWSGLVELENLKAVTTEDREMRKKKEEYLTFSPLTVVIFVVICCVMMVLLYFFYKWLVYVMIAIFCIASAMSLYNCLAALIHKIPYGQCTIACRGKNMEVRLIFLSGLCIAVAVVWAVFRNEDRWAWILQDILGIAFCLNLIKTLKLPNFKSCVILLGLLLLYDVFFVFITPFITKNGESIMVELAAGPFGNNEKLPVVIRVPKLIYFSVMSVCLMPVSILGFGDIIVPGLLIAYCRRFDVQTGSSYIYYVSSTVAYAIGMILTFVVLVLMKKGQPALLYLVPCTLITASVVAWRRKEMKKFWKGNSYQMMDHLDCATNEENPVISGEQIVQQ
Outline: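 HEK293 cells transiently co-transfected with human SPPL2a, NT-TNF-VP16-Gal4 substrate and Gal4-luciferase reporter, compound added within 5 h. After 24 h at 37 °C, luciferase luminescence measured; IC50 from concentration versus normalized luminescence.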

[3] = molecular target: T2, human SPPL2a; test: Sppl2a TL (translocation) imaging assay in U-2 OS cells; design: expressed in transfected cells; details: U-2 OS cells expressing human SPPL2a and EGFP-TNFα(aa1-76) NTF substrate; 24 h
Outline: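 U-2 OS cells stably expressing human SPPL2a plus doxycycline-induced EGFP-TNFα(aa1-76) NTF, treated 24 h at 37 °C with inhibitor (100 μM–1 nM, 11 points, 0.9% DMSO, 5 μg/mL doxycycline). Imaging of nuclear-minus-cytoplasmic EGFP intensity; % inhibition versus 0.5 μM LY-411,575 and DMSO, IC50 by nonlinear regression; CC50 from cell count.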

SMILES	IC50 [1] [nM]	IC50 [2] [nM]	IC50 [3] [nM]
CC[C@H](CNC(=O)c1sc(-c2cnn(C(F)F)c2)nc1Cl)C(=O)N[C@@H]1C(=O)N2CC3(CC3)CN2C(=O)c2ccccc21 [Example 45, 4-Chloro-2-(1-(difluoromethyl)-1H-pyrazol-4-yl)-N-((R)-2-(((S)-5,11-dioxo-10,11-dihydro-1H,3H,5H-spiro[benzo[d]pyr-azolo[1,2-a][1,2]diazepine-2,1′-cyclopropan]-10-yl)carbamoyl)butyl) thiazole-5-carboxamide]	2510	86	78
CC(C)C(=O)Nc1cc(NC(=O)C[C@@H](C)C(=O)N[C@@H]2C(=O)N3CCCN3Cc3ccccc32)n(C)n1 [Example 62, (R)—N^4-(3-Isobutyramido-1-methyl-1H-pyrazol-5-yl)-2-methyl-N^1—((S)-11-oxo-2,3,10,11-tetrahydro-1H,5H-benzo[d]pyrazolo[1,2-a][1,2]diazepin-10-yl)succinamide]	317	57	0.3
CC(C)C(=O)Nc1cc(NC(=O)C[C@H](C(=O)N[C@@H]2C(=O)N3CCCN3Cc3ccccc32)C2CCC2)n(C)n1 [Example 63, (S)-2-Cyclobutyl-N^4-(3-isobutyramido-1-methyl-1H-pyrazol-5-yl)-N^1-((S)-11-oxo-2,3,10,11-tetrahydro-1H,5H-benzo[d]pyrazolo [1,2-a][1,2]diazepin-10-yl)succinamide]	343	11	0.6
C[C@H](CC(=O)Nc1cc(C(=O)NCC(F)F)nn1C)C(=O)N[C@@H]1C(=O)N2CCCN2Cc2ccccc21 [Example 65, (R)-N^4-(3-((2,2-difluoroethyl)car-bamoyl)-1-methyl-1H-pyrazol-5-yl)-2-methyl-N^1-((S)-11-oxo-2,3,10,11-tetrahydro-1H,5H-benzo[d]pyrazolo [1,2-a][1,2]diazepin-10-yl)succinamide]	519	14	1
C[C@H](CC(=O)Nc1cc(NC(=O)c2ccccc2F)nn1C)C(=O)N[C@@H]1C(=O)N2CCCN2Cc2ccccc21 [Example 69, (R)-N^4-(3-(2-Fluorobenzamido)-1-methyl-1H-pyrazol-5-yl)-2-methyl-N^1-((S)-11-oxo-2,3,10,11-tetrahydro-1H,5H-benzo[d]pyrazolo [1,2-a][1,2]diazepin-10-yl)succinamide]	1240	9	3
C[C@H](CC(=O)Nc1cc(NC(=O)c2cccc(F)c2F)nn1C)C(=O)N[C@@H]1C(=O)N2CCCN2Cc2ccccc21 [Example 76, (R)-N^4-(3-(2,3-Difluorobenzamido)-1-methyl-1 H-pyrazol-5-yl)-2-methyl-N^1-((S)-11-oxo-2,3,10,11-tetrahydro-1H,5H-benzo[d]pyrazolo [1,2-a][1,2]diazepin-10-yl)succinamide]	1690	7	5

Results, then the compound that gave them:

IC50 [1] [nM]	IC50 [2] [nM]	IC50 [3] [nM]	SMILES
2680	54	79	CC[C@H](CNC(=O)c1sc(C2=CCOCC2)nc1Cl)C(=O)N[C@@H]1C(=O)N2CCCN2Cc2ccccc21 [Example 46, 4-Chloro-2-(3,6-dihydro-2H-pyran-4-yl)-N-((R)-2-(((S)-11-oxo-2,3,10,11-tetrahydro-1H,5H-benzo[d]pyrazolo [1,2-a][1,2]diazepin-10-yl)carbamoyl)butyl) thiazole-5-carboxamide]
741	41	83	CC[C@H](CNC(=O)c1sc(C2CC2)nc1C)C(=O)N[C@@H]1C(=O)N2CCCN2Cc2ccccc21 [Example 47, 2-Cyclopropyl-4-methyl-N-((R)-2-(((S)-11-oxo-2,3,10,11-tetrahydro-1H,5H-benzo[d]pyrazolo [1,2-a][1,2]diazepin-10-yl)carbamoyl)butyl) thiazole-5-carboxamide]
1390	90	97	Cc1nc(C2CCOCC2)sc1C(=O)NC[C@H](C(=O)N[C@@H]1C(=O)N2CCCN2Cc2ccccc21)C(F)(F)F [Example 50, 4-Methyl-2-(tetrahydro-2H-pyran-4-yl)-N-((R)-3,3,3-trifluoro-2-(((S)-11-oxo-2,3,10,11-tetrahydro-1H,5H-benzo[d]pyrazolo [1,2-a][1,2]diazepin-10-yl)carbamoyl)pro-pyl)thiazole-5-carboxamide]
148	30	118	COCc1nc(C)c(C(=O)NC[C@H](C(=O)N[C@@H]2C(=O)N3CCCN3Cc3ccccc32)C(F)(F)F)s1 [Example 52, 2-(Methoxymethyl)-4-methyl-N-((R)-3,3,3-trifluoro-2-(((S)-11-oxo-2,3,10,11-tetrahydro-1H,5H-benzo[d]pyrazolo [1,2-a][1,2]diazepin-10-yl)carbamoyl)pro-pyl)thiazole-5-carboxamide]
279	22	125	CCOc1nc(C)c(C(=O)NC[C@@H](CC)C(=O)N[C@@H]2C(=O)N3CCCN3Cc3ccccc32)s1 [Example 53, 2-Ethoxy-4-methyl-N-((R)-2-(((S)-11-oxo-2,3,10,11-tetrahydro-1H,5H-benzo[d]pyrazolo [1,2-a][1,2]diazepin-10-yl)carbamoyl)butyl) thiazole-5-carboxamide]
230	3	1	CC(C)NC(=O)c1nc(Cl)c(NC(=O)C[C@@H](C)C(=O)N[C@@H]2C(=O)N3CCCN3Cc3ccccc32)s1 [Example 64, (R)-N^4-(4-Chloro-2-(isopropylcarba-moyl)thiazol-5-yl)-2-methyl-N^1-((S)-11-oxo-2,3,10,11-tetrahydro-1H,5H-benzo[d]pyrazolo [1,2-a][1,2]diazepin-10-yl)succinamide]
136	2	2	Cc1nc(C(=O)NC(C)C)sc1NC(=O)C[C@@H](C)C(=O)N[C@@H]1C(=O)N2CCCN2Cc2ccccc21 [Example 66, (R)-N^4-(2-(Isopropylcarba-moyl)-4-methylthiazol-5-yl)-2-methyl-N^1-((S)-11-oxo-2,3,10,11-tetrahydro-1H,5H-benzo[d]pyrazolo [1,2-a][1,2]diazepin-10-yl)succinamide]
329	34	3	C[C@H](CC(=O)Nc1cc(C(=O)NCC(F)(F)F)nn1C)C(=O)N[C@@H]1C(=O)N2CCCN2Cc2ccccc21 [Example 68, (R)-2-methyl-N^4-(1-methyl-3-((2,2,2-trifluoroethyl)car-bamoyl)-1H-pyrazol-5-yl)-N^1-((S)-11-oxo-2,3,10,11-tetrahydro-1H,5H-benzo[d]pyrazolo [1,2-a][1,2]diazepin-10-yl)succinamide]
